Source: publication PMC3961306, “Comparison of the Cancer Gene Targeting and Biochemical Selectivities of All Targeted Kinase Inhibitors Approved for Clinical Use” (PLoS ONE, 2014)
Like-named read-outs stand apart in the source and are kept apart here.

Key:
Experiment in all cases: Kinase profiling in a biochemical assay panel (mobility shift assays and ELISA), %-inhibition at 1 μM; selectivity entropy
[1] = biological target: T1, panel of more than 300 wild-type and mutant kinases (313 kinase panel) (Homo sapiens, UniProt O60285)
T1 sequence (O60285 1-661): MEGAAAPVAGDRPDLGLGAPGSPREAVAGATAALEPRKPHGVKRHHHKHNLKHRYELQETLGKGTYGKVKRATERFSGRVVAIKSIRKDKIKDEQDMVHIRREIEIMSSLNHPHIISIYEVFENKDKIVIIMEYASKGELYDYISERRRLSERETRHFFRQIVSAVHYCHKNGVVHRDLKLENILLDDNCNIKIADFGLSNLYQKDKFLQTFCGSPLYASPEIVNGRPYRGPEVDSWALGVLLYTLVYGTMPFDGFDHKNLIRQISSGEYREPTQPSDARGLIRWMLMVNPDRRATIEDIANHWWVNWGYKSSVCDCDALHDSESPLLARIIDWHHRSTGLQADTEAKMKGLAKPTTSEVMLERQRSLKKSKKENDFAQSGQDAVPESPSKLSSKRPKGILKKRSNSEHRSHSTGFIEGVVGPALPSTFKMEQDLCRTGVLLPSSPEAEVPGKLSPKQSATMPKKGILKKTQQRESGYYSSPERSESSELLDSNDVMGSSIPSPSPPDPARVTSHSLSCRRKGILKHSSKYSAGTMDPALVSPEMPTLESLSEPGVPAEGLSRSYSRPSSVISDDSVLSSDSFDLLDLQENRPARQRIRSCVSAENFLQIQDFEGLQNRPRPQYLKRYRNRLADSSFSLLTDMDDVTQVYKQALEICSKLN

[2] = biological target: panel of more than 300 wild-type and mutant kinases (313 kinase panel) (Homo sapiens, UniProt P07949, S891A)
Chain of panel of more than 300 wild-type and mutant kinases (313 kinase panel) (Homo sapiens, UniProt P07949, S891A) (P07949 29-1114 S891A): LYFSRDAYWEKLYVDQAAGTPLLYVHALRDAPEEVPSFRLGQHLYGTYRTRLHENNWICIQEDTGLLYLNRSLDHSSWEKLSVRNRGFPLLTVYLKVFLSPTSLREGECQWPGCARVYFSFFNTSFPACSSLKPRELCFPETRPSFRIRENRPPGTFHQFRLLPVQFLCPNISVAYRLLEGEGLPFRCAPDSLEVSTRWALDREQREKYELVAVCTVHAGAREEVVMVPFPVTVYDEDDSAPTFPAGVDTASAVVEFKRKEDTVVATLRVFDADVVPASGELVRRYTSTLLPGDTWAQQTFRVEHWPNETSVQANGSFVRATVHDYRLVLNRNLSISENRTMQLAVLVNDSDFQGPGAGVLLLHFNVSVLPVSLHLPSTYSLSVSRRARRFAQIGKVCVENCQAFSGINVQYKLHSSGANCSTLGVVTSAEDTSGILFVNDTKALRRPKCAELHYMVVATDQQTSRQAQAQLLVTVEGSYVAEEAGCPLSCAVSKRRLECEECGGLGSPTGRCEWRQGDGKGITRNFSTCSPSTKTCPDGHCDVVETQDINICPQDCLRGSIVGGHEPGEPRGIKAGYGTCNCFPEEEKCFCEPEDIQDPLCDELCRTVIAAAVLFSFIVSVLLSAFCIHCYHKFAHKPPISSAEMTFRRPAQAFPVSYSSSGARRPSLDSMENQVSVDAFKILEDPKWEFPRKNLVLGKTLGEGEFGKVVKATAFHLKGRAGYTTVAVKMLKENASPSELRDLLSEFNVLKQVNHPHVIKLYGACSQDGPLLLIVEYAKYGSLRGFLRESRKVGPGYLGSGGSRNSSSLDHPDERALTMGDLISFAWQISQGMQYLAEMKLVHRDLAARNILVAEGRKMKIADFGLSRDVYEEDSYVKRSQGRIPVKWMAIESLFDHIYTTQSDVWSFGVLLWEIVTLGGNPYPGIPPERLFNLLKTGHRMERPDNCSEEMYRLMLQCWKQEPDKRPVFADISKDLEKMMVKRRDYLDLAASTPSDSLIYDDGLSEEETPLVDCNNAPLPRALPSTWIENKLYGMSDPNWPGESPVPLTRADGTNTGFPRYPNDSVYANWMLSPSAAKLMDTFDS

[3] = biological target: panel of more than 300 wild-type and mutant kinases (313 kinase panel) (Homo sapiens, UniProt P08069)
[4] = biological target: panel of more than 300 wild-type and mutant kinases (313 kinase panel) (Homo sapiens, UniProt P19784)
Chain of panel of more than 300 wild-type and mutant kinases (313 kinase panel) (Homo sapiens, UniProt P19784) (P19784 whole entry, change not shown): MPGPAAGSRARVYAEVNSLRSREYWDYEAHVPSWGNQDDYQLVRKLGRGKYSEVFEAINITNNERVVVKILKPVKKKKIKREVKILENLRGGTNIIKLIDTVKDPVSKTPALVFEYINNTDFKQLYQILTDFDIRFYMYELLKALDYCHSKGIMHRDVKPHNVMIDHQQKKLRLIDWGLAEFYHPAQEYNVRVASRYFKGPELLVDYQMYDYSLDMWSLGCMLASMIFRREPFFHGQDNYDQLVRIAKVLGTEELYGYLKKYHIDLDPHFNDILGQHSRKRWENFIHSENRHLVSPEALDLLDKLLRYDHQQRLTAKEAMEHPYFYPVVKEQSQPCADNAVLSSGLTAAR

[5] = biological target: panel of more than 300 wild-type and mutant kinases (313 kinase panel) (Homo sapiens, UniProt P80192)
Chain of panel of more than 300 wild-type and mutant kinases (313 kinase panel) (Homo sapiens, UniProt P80192) (P80192 whole entry, change not shown): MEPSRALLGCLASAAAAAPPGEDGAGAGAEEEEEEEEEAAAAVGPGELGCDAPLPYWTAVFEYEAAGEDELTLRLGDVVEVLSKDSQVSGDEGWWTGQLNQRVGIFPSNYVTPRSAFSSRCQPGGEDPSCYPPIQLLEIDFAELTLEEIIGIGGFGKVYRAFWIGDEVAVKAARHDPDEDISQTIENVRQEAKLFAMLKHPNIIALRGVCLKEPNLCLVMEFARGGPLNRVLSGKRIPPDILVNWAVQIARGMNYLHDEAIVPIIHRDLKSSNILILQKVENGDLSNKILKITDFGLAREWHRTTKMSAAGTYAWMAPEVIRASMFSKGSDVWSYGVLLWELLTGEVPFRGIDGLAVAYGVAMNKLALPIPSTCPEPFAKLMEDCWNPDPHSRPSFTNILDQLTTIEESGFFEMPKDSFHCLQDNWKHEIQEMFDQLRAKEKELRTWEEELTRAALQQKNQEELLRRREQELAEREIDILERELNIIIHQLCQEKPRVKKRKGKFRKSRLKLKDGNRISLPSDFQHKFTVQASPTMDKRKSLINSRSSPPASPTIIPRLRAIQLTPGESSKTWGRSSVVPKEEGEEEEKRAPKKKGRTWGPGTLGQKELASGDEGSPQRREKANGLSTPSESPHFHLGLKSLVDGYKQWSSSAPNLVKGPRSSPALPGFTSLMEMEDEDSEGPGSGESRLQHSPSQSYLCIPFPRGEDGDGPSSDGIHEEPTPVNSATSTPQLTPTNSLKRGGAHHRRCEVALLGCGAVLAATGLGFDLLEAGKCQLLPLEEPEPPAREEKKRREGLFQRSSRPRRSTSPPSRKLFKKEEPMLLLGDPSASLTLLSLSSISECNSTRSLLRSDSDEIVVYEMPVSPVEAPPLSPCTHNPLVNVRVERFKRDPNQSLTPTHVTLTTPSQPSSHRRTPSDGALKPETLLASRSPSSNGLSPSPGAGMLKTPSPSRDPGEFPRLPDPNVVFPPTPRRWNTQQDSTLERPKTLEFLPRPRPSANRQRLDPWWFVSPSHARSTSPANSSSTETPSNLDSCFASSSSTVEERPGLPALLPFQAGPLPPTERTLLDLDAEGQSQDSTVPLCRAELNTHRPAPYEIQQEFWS

[6] = biological target: T2, panel of more than 300 wild-type and mutant kinases (313 kinase panel) (Homo sapiens, UniProt Q08881)
T2 sequence (Q08881 1-620): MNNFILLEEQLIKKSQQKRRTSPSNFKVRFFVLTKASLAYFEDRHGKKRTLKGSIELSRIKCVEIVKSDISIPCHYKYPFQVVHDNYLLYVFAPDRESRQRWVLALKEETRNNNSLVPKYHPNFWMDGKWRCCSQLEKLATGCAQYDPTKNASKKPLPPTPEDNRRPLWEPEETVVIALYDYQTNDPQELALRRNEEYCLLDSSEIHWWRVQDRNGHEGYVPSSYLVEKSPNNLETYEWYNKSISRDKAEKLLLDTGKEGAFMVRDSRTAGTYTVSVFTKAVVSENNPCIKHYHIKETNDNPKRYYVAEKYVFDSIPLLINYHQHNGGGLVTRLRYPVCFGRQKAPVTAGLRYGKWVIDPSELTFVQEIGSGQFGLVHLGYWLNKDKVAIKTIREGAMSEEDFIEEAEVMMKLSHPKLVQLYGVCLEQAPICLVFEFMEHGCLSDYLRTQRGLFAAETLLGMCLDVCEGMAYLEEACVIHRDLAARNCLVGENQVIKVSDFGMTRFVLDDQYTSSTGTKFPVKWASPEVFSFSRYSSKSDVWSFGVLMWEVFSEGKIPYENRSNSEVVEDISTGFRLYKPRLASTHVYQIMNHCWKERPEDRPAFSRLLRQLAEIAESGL

[7] = biological target: panel of more than 300 wild-type and mutant kinases (313 kinase panel) (Homo sapiens, UniProt Q15418)
[8] = biological target: T3, panel of more than 300 wild-type and mutant kinases (313 kinase panel) (Homo sapiens, UniProt Q8TF76)
T3 sequence (Q8TF76 1-798): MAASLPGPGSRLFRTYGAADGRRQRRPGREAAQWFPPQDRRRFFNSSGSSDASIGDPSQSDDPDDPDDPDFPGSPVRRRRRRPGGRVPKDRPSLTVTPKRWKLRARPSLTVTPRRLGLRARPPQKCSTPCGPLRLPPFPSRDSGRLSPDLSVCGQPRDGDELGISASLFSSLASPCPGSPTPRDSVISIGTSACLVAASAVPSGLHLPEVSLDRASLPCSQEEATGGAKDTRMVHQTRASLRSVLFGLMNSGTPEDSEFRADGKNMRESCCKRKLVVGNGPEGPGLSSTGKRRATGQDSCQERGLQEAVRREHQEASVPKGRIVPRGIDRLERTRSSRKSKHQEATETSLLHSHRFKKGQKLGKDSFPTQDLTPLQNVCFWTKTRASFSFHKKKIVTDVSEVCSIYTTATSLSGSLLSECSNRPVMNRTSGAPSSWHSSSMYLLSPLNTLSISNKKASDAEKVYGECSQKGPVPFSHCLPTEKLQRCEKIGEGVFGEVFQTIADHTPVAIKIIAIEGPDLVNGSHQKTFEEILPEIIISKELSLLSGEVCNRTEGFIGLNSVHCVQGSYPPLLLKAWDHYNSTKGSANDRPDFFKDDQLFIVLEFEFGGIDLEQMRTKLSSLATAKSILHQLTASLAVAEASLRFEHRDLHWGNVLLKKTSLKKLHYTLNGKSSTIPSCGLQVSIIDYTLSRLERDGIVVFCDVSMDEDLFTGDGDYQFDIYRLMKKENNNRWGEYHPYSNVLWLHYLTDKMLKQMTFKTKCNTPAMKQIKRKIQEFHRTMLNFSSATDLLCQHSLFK

[9] = kinase Haspin, compound at 1 μM

Row | Compound | %-inhibition of NuaK1 ([1]; kinase NuaK1, 1 μM) [%] | %-inhibition of RET(S891A) ([2]; kinase RET(S891A), 1 μM) [%] | %-inhibition of IGF1R ([3]; kinase IGF1R, compound at 1 μM) [%] | %-inhibition, CK2α2/β ([4]; kinase CK2α2/β, 1 μM compound) [%] | %-inhibition of MLK1 ([5]; kinase MLK1, 1 μM) [%] | %-inhibition of ITK ([6]; kinase ITK, compound at 1 μM) [%] | %-inhibition of RSK1 ([7]; kinase RSK1, 1 μM) [%] | %-inhibition of Haspin [8, 9] [%] | %-inhibition of NuaK1 ([1]; 1 µM) [%] | %-inhibition of RET(S891A) ([2]; 1 µM) [%] | %-inhibition of IGF1R [3] [%] | %-inhibition, CK2α2/β ([4]; 1 µM) [%] | %-inhibition of MLK1 ([5]; 1 µM) [%] | %-inhibition of ITK ([6]; 1 µM) [%] | %-inhibition of RSK1 ([7]; 1 µM) [%] | %-inhibition of Haspin ([8]; 1 µM) [%]
1 | CCCS(=O)(=O)Nc1ccc(F)c(C(=O)c2c[nH]c3ncc(-c4ccc(Cl)cc4)cc23)c1F [vemurafenib] | 4 | 60 | 10 | -6.56 | 10 | 3 | -1.32 | -3 |  |  |  |  |  |  |  | 
2 | C#Cc1cccc(Nc2ncnc3cc(OCCOC)c(OCCOC)cc23)c1 [erlotinib] |  |  |  |  |  |  |  |  | 12 | 93 | 7 | -5.48 | 14 | 6.51 | 9 | -8
3 | CNC(=O)c1cc(Oc2ccc(NC(=O)Nc3ccc(Cl)c(C(F)(F)F)c3)c(F)c2)ccn1 [regorafenib] | -1.75 |  | -1.72 | -5.46 | -7 | 2.43 | 0.165 | -8 |  | 102 |  |  |  |  |  | 
4 | CO[C@H]1C[C@@H]2CC[C@@H](C)[C@@](O)(O2)C(=O)C(=O)N2CCCC[C@H]2C(=O)O[C@H]([C@H](C)C[C@@H]2CC[C@@H](OC(=O)C(C)(CO)CO)[C@H](OC)C2)CC(=O)[C@H](C)/C=C(\C)[C@@H](O)[C@@H](OC)C(=O)[C@H](C)C[C@H](C)/C=C/C=C/C=C/1C [temsirolimus] | 3.3 | -2.19 | -4.62 | -5.28 | 7.48 | -1.7 | -6.45 | 3 |  |  |  |  |  |  |  | 
5 | Cc1cn(-c2cc(NC(=O)c3ccc(C)c(Nc4nccc(-c5cccnc5)n4)c3)cc(C(F)(F)F)c2)cn1 [nilotinib] |  |  | -11 |  | -12 | -0.451 | 22 | 2.56 | -17 | 81 |  | -4.26 |  |  |  | 
6 | CS(=O)(=O)CCNCc1ccc(-c2ccc3ncnc(Nc4ccc(OCc5cccc(F)c5)c(Cl)c4)c3c2)o1 [lapatinib] | 3 |  | 3.73 | -3.45 | 7 | -1.89 | 2.59 | 3.3 |  | 0.932 |  |  |  |  |  | 
